Literature values as cited in US20250032525A1 (priority 2021, published 2025).

System: NCI-H226
Conditions: NCI-H226, NCI-60 database, sulforhodamine B; read-out: Cytotoxic IC50; cited from earlier work

SMILES: COc1cccc2c1C(=O)c1c(O)c3c(c(O)c1C2=O)C[C@@](O)(C(=O)CO)C[C@@H]3O[C@H]1C[C@H](N)[C@H](O)[C@H](C)O1 [DOX, doxorubicin]
- IC50: 52.4 nM
